Assays:
Format in all cases: cell-based
DLD-1 = assay: MTS assay (cell growth inhibition), DLD-1; settings: DLD-1 cells, 72 hours incubation with test compound; concentration not given
Procedure: (§1) Cells were maintained at 37° C., 5% CO2 in DMEM media supplemented with 1% fetal bovine serum, penicillin/streptomycin and fungizone (Invitrogen). Cells were seeded into 96-well tissue culture plates at 3000 per well and cultured at 37° C. for 18 hours. Test compounds were dissolved and diluted to 300× in DMSO then diluted 1:40 in DMEM. Cells were incubated with test compounds for 72 hours followed by incubation with tetrazolium compound (3-(4,5-dimethylthiazol-2-yl)-5-(3-carboxymethoxyphenyl)-2-(4-sulfophenyl)-2H-tetrazolium, inner salt; MTS) and the electron coupling reagent, phenazine methosulfate (PMS) for 4 hours. […] The ability of compounds to inhibit cell growth in this assay is correlated with the reduction of dehydrogenase enzyme activity found in metabolically active cells. The measurement of the absorbance of the formazan was assessed using an ENVISION™ (Perkin Elmer) microplate reader at 492 nm. The calculated IC50 value is the concentration of the test compound that causes a 50% decrease in the absorbance.

MDA-MB = assay: MTS assay (cell growth inhibition), MDA-MB; settings: MDA-MB cells, 72 hours incubation with test compound; concentration not given
Procedure: as §1

PC-3 = assay: MTS assay (cell growth inhibition), PC-3; settings: PC-3 cells, 72 hours incubation with test compound; concentration not given
Procedure: as §1

Kato III = assay: MTS assay (cell growth inhibition), Kato III; settings: Kato III cells, 72 hours incubation with test compound; concentration not given
Procedure: as §1

NCI-H1299 = assay: MTS assay (cell growth inhibition), NCI-H1299; settings: NCI-H1299 cells, 72 hours incubation with test compound; concentration not given
Procedure: as §1

PACA-2 = assay: MTS assay (cell growth inhibition), PACA-2; settings: PACA-2 cells, 72 hours incubation with test compound; concentration not given
Procedure: as §1

C[C@H](CN1C(=O)c2cnc3[nH]ncc3c2C1=O)c1ccccc1 [Example 121, 7-[(2S)-2-phenylpropyl]pyrazolo[3,4-b]pyrrolo[3,4-d]pyridine-6,8(3H,7H)-dione]
MTS CELL KILL DATA (% INHIBITION) DLD-1 (DLD-1): C (C = <50% INHIBITION) | MTS CELL KILL DATA (% INHIBITION) MDA-MB (MDA-MB): B (B = 50-79% INHIBITION) | MTS CELL KILL DATA (% INHIBITION) PC-3 (PC-3): A (A = 80-100% INHIBITION) | MTS CELL KILL DATA (% INHIBITION) Kato III (Kato III): C (C = <50% INHIBITION) | MTS CELL KILL DATA (% INHIBITION) NCI-H1299 (NCI-H1299): C (C = <50% INHIBITION) | MTS CELL KILL DATA (% INHIBITION) PACA-2 (PACA-2): C (C = <50% INHIBITION)

O=C1c2cnc3[nH]ncc3c2C(=O)N1CC1=Cc2ccccc2S1(=O)=O [Example 119, 7-[(1,1-dioxido-1-benzothien-2-yl)methyl]pyrazolo[3,4-b]pyrrolo[3,4-d]pyridine-6,8(3H,7H)-dione]
MTS CELL KILL DATA (% INHIBITION) DLD-1 (DLD-1): C (C = <50% INHIBITION) | MTS CELL KILL DATA (% INHIBITION) MDA-MB (MDA-MB): B (B = 50-79% INHIBITION) | MTS CELL KILL DATA (% INHIBITION) PC-3 (PC-3): C (C = <50% INHIBITION) | MTS CELL KILL DATA (% INHIBITION) Kato III (Kato III): C (C = <50% INHIBITION) | MTS CELL KILL DATA (% INHIBITION) NCI-H1299 (NCI-H1299): C (C = <50% INHIBITION) | MTS CELL KILL DATA (% INHIBITION) PACA-2 (PACA-2): C (C = <50% INHIBITION)

O=C1NCCN1CCN1C(=O)c2cnc3[nH]ncc3c2C1=O [Example 6, 7-[2-(2-oxoimidazolidin-1-yl)ethyl]pyrazolo[3,4-b]pyrrolo[3,4-d]pyridine-6,8(3H,7H)-dione]
MTS CELL KILL DATA (% INHIBITION) DLD-1 (DLD-1): C (C = <50% INHIBITION) | MTS CELL KILL DATA (% INHIBITION) MDA-MB (MDA-MB): A (A = 80-100% INHIBITION) | MTS CELL KILL DATA (% INHIBITION) PC-3 (PC-3): A (A = 80-100% INHIBITION) | MTS CELL KILL DATA (% INHIBITION) Kato III (Kato III): A (A = 80-100% INHIBITION) | MTS CELL KILL DATA (% INHIBITION) NCI-H1299 (NCI-H1299): A (A = 80-100% INHIBITION) | MTS CELL KILL DATA (% INHIBITION) PACA-2 (PACA-2): C (C = <50% INHIBITION)

Cc1cccc(OCCN2C(=O)c3cnc4[nH]ncc4c3C2=O)c1 [Example 13, 7-[2-(3-methylphenoxy)ethyl]pyrazolo[3,4-b]pyrrolo[3,4-d]pyridine-6,8(3H,7H)-dione]
MTS CELL KILL DATA (% INHIBITION) DLD-1 (DLD-1): C (C = <50% INHIBITION) | MTS CELL KILL DATA (% INHIBITION) MDA-MB (MDA-MB): A (A = 80-100% INHIBITION) | MTS CELL KILL DATA (% INHIBITION) PC-3 (PC-3): A (A = 80-100% INHIBITION) | MTS CELL KILL DATA (% INHIBITION) Kato III (Kato III): A (A = 80-100% INHIBITION) | MTS CELL KILL DATA (% INHIBITION) NCI-H1299 (NCI-H1299): B (B = 50-79% INHIBITION) | MTS CELL KILL DATA (% INHIBITION) PACA-2 (PACA-2): C (C = <50% INHIBITION)

O=C1c2cnc3[nH]ncc3c2C(=O)N1CCc1cccc2ccccc12 [Example 77, 7-[2-(1-naphthyl)ethyl]pyrazolo[3,4-b]pyrrolo[3,4-d]pyridine-6,8(3H,7H)-dione]
MTS CELL KILL DATA (% INHIBITION) DLD-1 (DLD-1): A (A = 80-100% INHIBITION) | MTS CELL KILL DATA (% INHIBITION) MDA-MB (MDA-MB): A (A = 80-100% INHIBITION) | MTS CELL KILL DATA (% INHIBITION) PC-3 (PC-3): A (A = 80-100% INHIBITION) | MTS CELL KILL DATA (% INHIBITION) Kato III (Kato III): A (A = 80-100% INHIBITION) | MTS CELL KILL DATA (% INHIBITION) NCI-H1299 (NCI-H1299): A (A = 80-100% INHIBITION) | MTS CELL KILL DATA (% INHIBITION) PACA-2 (PACA-2): A (A = 80-100% INHIBITION)

Cc1ccc(OCCN2C(=O)c3cnc4[nH]ncc4c3C2=O)cc1 [Example 125, 7-[2-(4-methylphenoxy)ethyl]pyrazolo[3,4-b]pyrrolo[3,4-d]pyridine-6,8(3H,7H)-dione]
MTS CELL KILL DATA (% INHIBITION) DLD-1 (DLD-1): C (C = <50% INHIBITION) | MTS CELL KILL DATA (% INHIBITION) MDA-MB (MDA-MB): A (A = 80-100% INHIBITION) | MTS CELL KILL DATA (% INHIBITION) PC-3 (PC-3): A (A = 80-100% INHIBITION) | MTS CELL KILL DATA (% INHIBITION) Kato III (Kato III): C (C = <50% INHIBITION) | MTS CELL KILL DATA (% INHIBITION) NCI-H1299 (NCI-H1299): C (C = <50% INHIBITION) | MTS CELL KILL DATA (% INHIBITION) PACA-2 (PACA-2): A (A = 80-100% INHIBITION)

Reference: US8906928B2, “Substituted pyrazolo-pyrrolo-pyridine-dione compounds” (ArQule, Inc., priority 2009, dated 2014)
